Consider one compound from patent publication US6034101A, “Dosage form and method for administering drug” (ALZA Corporation, priority 1997, dated 2000).

Each structure is given as a SMILES string.

Data set [1] deals with school children. Put plainly: Clinical study of Example 1: behavior, activity, mathematics scores and acute tolerance in school children (SKAMP, CLAM). It counts as in vivo, human. The procedure: (§1) The CLAM Test is a behavior rating that indicates social conformity or rebellion as developed by Conners, Lonez, and Milch and SKAMP is a rating that also measures behavior as developed by Swanson and reported in Psychopharmacological Bulletin, Vol. 21, pp. 887-890 (1985).
(§2) The effect measurements in this study were: (1) observer ratings on SKAMP scale (during classroom time) and (2) performance on the computerized mathematics test. Each child was tested on the mathematics test before the study began, and based on this pre-test during the study, a mathematics test appropriate for each child's ability was given. The morning and evening parent CLAM assessments were used to identify unusual behaviors. The evening parent CLAM was used to determine the presence of treatment effects in the evening hours, particularly treatment effects on the time the child fell asleep, and whether the child's sleep was interrupted. All of the children also wore an activity monitor (Actigraph) which records the movements of the child throughout the day. The activity (number of movements per minute) is recorded electronically and modeled as a function of the drug effect.
The immediate release tablet and the sustained-release dosage form were compared to a sustained-release dosage form that administered methylphenidate in an ascending profile. The sustained-release ascending profile corresponds to administering 4.2 mg at zero hour, 1.1 mg at 1.5 hours, 1.1 mg at 2 hours, 1.2 mg at 2.5 hours, 1.2 mg at 3.0 hours, 1.3 mg at 3.5 hours, 1.3 mg at 4 hours, 1.5 mg at 4.5 hours, 1.5 mg at 5 hours, 1.8 mg at 5.5 hours, 1.8 mg at 6 hours, and 2.0 mg at 6.5 hours, to produce the sustained-ascending release dotted line profile seen in FIG. 2.
The accompanying figures present the results of the above-described study. In FIGS. 3, 4, and 5, the line with a clear circle denotes a placebo, the dark circle an immediate release dosage form administered twice a day, the dark squares a sustained release nonascending dosage profile, and the clear squares the sustained ascending release profile provided by this invention. The SKAMP Score and CLAM Score were defined earlier in the specification, and the times are as indicated on the figures. FIG. 3 denotes the observed behavior, FIG. 4 denotes the inattention overactivity, and FIG. 5 denotes the combined attention results of the study.

For data set [2], the system named is children with attention deficient hyperactivity disorder. Put plainly: Clinical study of Example 2: behavior and combined attention, acquired tolerance in children with attention deficient hyperactivity disorder. It counts as in vivo, human. To be noted: total 36 mg. The procedure: as §1, §2
The results of a clinical study that comprises administering methylphenidate according to two distinct delivery programs are reported in this example. […]

For data set [3], the system named is patients. Put plainly: Therapeutic response and acquired tolerance in patients (general statements). It counts as in vivo, human. To be noted: sustained-release dosage form with constant plasma concentration; applicant's finding.
Data set [4] concerns patients. The conditions noted are these: cited from earlier work.
For data set [5] the following is noted: immediate release form; cited from earlier work.
The mark [6] stands for this setting: sustained-nonascending dose, 20 mg, vs placebo.

In the case of `COC(=O)C(c1ccccc1)C1CCCCN1` (stereo not shown) [methylphenidate], the “therapeutic effect / tolerance” value in data set [1] (controlled-sustained ascending profile) is given as “desired therapeutic effect without tolerance”. Moreover, the acute tolerance result in data set [1] (sustained-nonascending dose, 20 mg) was “development of acute tolerance”. In data set [1] (setting [6]), the activity result was “decrease in activity”, the inappropriate behavior result was “lessening of inappropriate behavior” and the mathematical scores entry is “higher mathematical scores”. The “behavior, acquired tolerance” value in data set [2] (sustained-ascending program, FIG. 7) is on record as “absence of acquired tolerance”. For the same compound, in data set [2] (sustained-ascending release, FIG. 8), the “combined attention, acquired tolerance” value is given as “essentially free of developed tolerance”. Besides, the “efficacy against acquired tolerance” value in data set [3] is listed as “lacks efficacy particularly against acquired tolerance”. Also, the tolerance result in data set [4] (5 mg dose twice a day) is on record as “acquires tolerance”. Also, the “time to development of tolerance” value in data set [4] (after administration) was “within hours”. The acute tolerance entry in data set [4] (prior art sustained-release nonascending dosage form) is recorded as “often develops an acute tolerance”. In data set [5], the half-life entry is “short half-life” and the onset result is recorded as “rapid onset”.
